Columns and labels:
[1] = Test B: gastric emptying in conscious guinea pigs (X-ray passage of spheroids); format: in vivo; settings: enhancing gastric emptying
Protocol: The compounds of the invention also induce gastric emptying as indicated in standard in vivo tests, e.g. in conscious guinea pigs having stomachs made atonic (i.e. having decreased peristaltic movements) by fasting and wherein the passage of glass spheroids was observed by X-ray techniques. The experiment is effected as follows: • Food was withdrawn for 14 hours before the measurement of gastric emptying. The experiment was conducted under low illumination which minimal noise and disturbance, and was carried out only by those experimentors who had daily contact with the guinea pigs and who carried out the initial training to accustom the guinea pigs to handling. Therefore, animals were subject to minimal stress. […] Gastric emptying was measured as the number of spheroids leaving the stomach.
Six guinea pigs were used at each dose level of drug and responses compared to those of guinea pigs receiving the appropriate vehicle. The significance of differences between drug and control responses was assessed using the Mann Whitney U test.

[2] = format: in vivo, NMRI mice; settings: cholera toxin challenged mice
[3] = test system: muscle strips from different parts of the guinea pig stomach; assay: Test A: field stimulation-induced contractions in guinea pig stomach muscle strips; settings: facilitation of field stimulation-induced contractions
Excerpt: The compounds of the invention facilitate field stimulation-induced contractions in muscle strips from different parts of the guinea pig stomach and are therefore indicated to increase decreased peristaltic movements in the stomach and to enhance gastric emptying in vivo. The test is effected as follows:-Male Dunkin-Hartley guinea pigs, 340-450 g, which had been starved overnight, were killed by cervical transsection and the stomach removed and placed in Krebs-Henseleit solution (NaCI 118.0, KCI 4.75, KH2P04 1.2, MgS04 1.2, CaC12 2.5, glucose 10 mM). Segments were taken from the body (approximately 20 mm long, 3-4 mm wide) with dissection in a plane suitable to investigate tension changes in the circular muscle layer. Tissues were placed in 30 ml organ baths containing oxygenated (95% 02, 5% C02) Krebs-Henseleit solution at 37 C. One gram tension was applied to the tissues which were allowed to equilibrate for 45-60 min. before electrical stimulation. […] Responses were measured as changes in gram tension, but to allow easier comparison between treatments, data were converted to show changes as percentage values. The significance of differences between control responses and those obtained in the presence of interacting drugs was assessed using the Mann-Whitney U test.

[4] = target: T1, low affinity 5-HT receptors (Cavia porcellus, UniProt O70212); assay: 5-HT induced contraction of isolated longitudinal muscle of guinea pig ileum, low affinity receptor; settings: guinea pig ileum longitudinal muscle strip, 5-HT as agonist
T1 construct: Longitudinal muscle strips, 3-4 cm length, were mounted in a 10 ml organ bath; from tissue; host or cells: guinea pig ileum longitudinal muscle with adhering myenteric plexus
T1 sequence (O70212 20-490): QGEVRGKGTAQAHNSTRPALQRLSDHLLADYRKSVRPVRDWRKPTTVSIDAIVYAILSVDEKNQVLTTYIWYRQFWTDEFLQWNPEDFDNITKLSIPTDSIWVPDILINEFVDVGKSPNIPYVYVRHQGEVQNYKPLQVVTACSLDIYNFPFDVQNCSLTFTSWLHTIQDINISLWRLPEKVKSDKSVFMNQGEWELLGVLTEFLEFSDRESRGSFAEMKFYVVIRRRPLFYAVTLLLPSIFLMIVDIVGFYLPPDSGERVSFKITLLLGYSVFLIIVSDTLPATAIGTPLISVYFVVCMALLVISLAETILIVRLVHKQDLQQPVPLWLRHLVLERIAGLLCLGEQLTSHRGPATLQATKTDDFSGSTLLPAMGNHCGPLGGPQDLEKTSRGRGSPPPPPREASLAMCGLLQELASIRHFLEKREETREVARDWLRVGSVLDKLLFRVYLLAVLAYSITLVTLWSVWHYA
Excerpt: (§1) The isolated longitudinal muscle of the guinea pig ileum with its adhering myenteric plexus is a well established model which permits investigation of the mechanism of action of various neurtransmitters.
(§2) Male guinea pigs (200-400 g) were killed by a blow on the head and exsanguinated. A length of small intestine was removed about 2 cm from the ileo-caecal valve. The mesentery was carefully removed and the ileum was stretched over a glass rod. By stroking tangentially away from the mesenteric attachment with a wad of cotton wool, the longitudinal muscle layer was separated and stripped from the unterlying circular muscle. Longitudinal muscle strips, 3-4 cm length, were mounted in a 10 ml organ bath containing Tyrode solution at 37 ° C and bubbled with 5% carbon dioxide in oxygen. […] Contractions were recorded with an isotonic pendulum lever. […]
(§3) Non-cumulative concentration-response curves for 5-HT were established by adding increasing concentrations of the agonist to the organ bath at intervals of at least 15 min. […] The contractions expressed as percentage of the maximal response to 5-HT obtained from several preparations were plotted as mean values in order to obtain log-concentration-response curves. Inhibition constants were expressed in the form of pA2 values which were graphically determined according to conventional methods (Arunlakshana and Schild, 1959. Mc Kay 1978). […]

[5] = Test C: inhibition of 5-hydroxytryptophan (5-HTP) induced increase in gastrointestinal motility (charcoal transit); format: in vivo, NMRI mice; settings: 30 minutes before 5-HTP 3 mg/kg, mice
Protocol: In a further test the inhibition of the increase in gastrointestinal motility induced by 5-hydroxytryptophan (5-HTP) by the compounds of the invention was observed.
Male NMRI mice (18-32 g in weight) are deprived of food 20 hours before the test. Water is not limited. The animals are separated by a barrier from their straw and access to feces. At the beginning of the test the animals are separated in individual single cages and water is removed.
All animals were treated with the test compound or saline. l.p. administration was used. Injection volume was 0.1 ml/10 g. 30 minutes after pre-treatment 5-HTP or saline was administered. Injection volume 0.1 ml /10 g. Dose 3 mg/kg. At the same time charcoal was administered perorally (10% suspension in water; 0.1 ml/10g). 45 minutes after the start of the experiment the animals were killed. The intestines from the stomach to the rectum were examined. For each animal the transit distance of the front of the charcoal meal along the intestine was measured. The distance was ascertained as a percentage of the whole intestinal length. Groups of at least 3 animals were used.

[6] = test system: high affinity 5-HT receptor; assay: 5-HT induced contraction of isolated longitudinal muscle of guinea pig ileum, high affinity receptor; settings: guinea pig ileum longitudinal muscle strip, 5-HT as agonist
Excerpt: as §1, §2, §3

[7] = target: dopamine binding sites; settings: tritiated haloperidol; cited from earlier work

Question: Which “times more active than metoclopramide” value [1] does the source give for `CN1[C@@H]2CC[C@H]1C[C@@H](OC(=O)c1c[nH]c3ccccc13)C2` [Compound E, Indol-3-yl carboxylic acid endo-8-methyl-8-aza-bicyclo[3,2,1]-oct-3-yl ester] here?
Answer: about 50 times

Question: And the “effect of an increase in the dose on stomach contents” value [2]?
Answer: did not lead to a reduction in the stomach contents

Question: What about the “times more active than metoclopramide” value [3] of the same molecule?
Answer: 100 times

Question: What about the “pA2 low affinity receptor” value [4] of the same molecule?
Answer: pA2 = 7.9

Question: And the ED50 i.p. [5]?
Answer: 0.07 mg/kg

Question: And the “pD'2 high affinity receptor” value [6]?
Answer: pD'2 = 5.7

Question: Which “pA2 low affinity receptor” value [4] does the source give for `CN1[C@@H]2CCC[C@H]1C[C@@H](OC(=O)c1csc3ccccc13)C2` [Compound F, Benzo[b]thiophen-3-yl carboxylic acid endo-9-methyl-asa-bicyclo-[3,3,1]non-3-yl ester] here?
Answer: pA2 = 9.4

Question: What about the ED50 ([5]; Mus musculus, i.p.) of the same molecule?
Answer: 0.025 mg/kg

Question: And the “pD'2 high affinity receptor” value [6]?
Answer: pD'2 = 5.9

Question: With `CN1[C@@H]2CCC[C@H]1C[C@@H](OC(=O)c1cn(C)c3ccc(F)cc13)C2` [Compound G, 5-fluoro-1-methyl-indol-3-yl carboxylic acid endo-9-methyl-9-aza-bicyclo[3,3,1]non-3-yl ester] as the molecule, how does the ED50 i.p. [5] read?
Answer: 0.002 mg/kg

Question: With `CCN(CC)CCNC(=O)c1cc(Cl)c(N)cc1OC` [metoclopramide] as the molecule, how does the IC50 [7] read?
Answer: ~0.17 µM
